Source: US9475817B2 (BRISTOL-MYERS SQUIBB COMPANY, priority 2012, dated 2016)

How the values were obtained:
CK1ε = CK1ε (Homo sapiens (Human), UniProt P49674); assay: CK1ε kinase assay (Caliper LabChip, fluoresceinated peptide substrate); format: biochemical; details: 200 pM CK1ε, 50 μM ATP, 1.5 μM peptide substrate, 22 hours room temperature
Description: (§1) CK1ε and CK1δ Kinase Assays
(§2) The kinase assay was performed in V-bottom 384-well plates. […] The reaction was incubated at room temperature for 22 hours and terminated by adding 45 μl of 35 mM EDTA to each sample. […] Compounds were dissolved at 10 mM in dimethylsulfoxide (DMSO) and evaluated at eleven concentrations. IC50 values were derived by non-linear regression analysis.

CK1δ = CK1δ (Homo sapiens (Human), UniProt P48730); assay: CK1δ kinase assay (Caliper LabChip, fluoresceinated peptide substrate); format: biochemical; details: 200 pM CK1δ, 50 μM ATP, 1.5 μM peptide substrate, 22 hours room temperature
CK1δ, sequence (P48730 whole entry): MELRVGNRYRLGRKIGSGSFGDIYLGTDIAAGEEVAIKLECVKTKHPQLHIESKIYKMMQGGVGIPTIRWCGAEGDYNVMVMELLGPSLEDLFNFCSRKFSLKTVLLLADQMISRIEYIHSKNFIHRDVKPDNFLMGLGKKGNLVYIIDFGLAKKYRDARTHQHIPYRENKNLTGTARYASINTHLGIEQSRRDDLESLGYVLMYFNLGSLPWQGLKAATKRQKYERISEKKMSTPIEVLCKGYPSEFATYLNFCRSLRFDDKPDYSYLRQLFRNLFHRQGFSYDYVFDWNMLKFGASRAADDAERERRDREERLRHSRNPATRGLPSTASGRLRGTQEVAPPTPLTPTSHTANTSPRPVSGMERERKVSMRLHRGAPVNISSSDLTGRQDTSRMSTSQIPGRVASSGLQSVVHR
Description: as §1, §2

CK1ε, sequence (P49674 whole entry): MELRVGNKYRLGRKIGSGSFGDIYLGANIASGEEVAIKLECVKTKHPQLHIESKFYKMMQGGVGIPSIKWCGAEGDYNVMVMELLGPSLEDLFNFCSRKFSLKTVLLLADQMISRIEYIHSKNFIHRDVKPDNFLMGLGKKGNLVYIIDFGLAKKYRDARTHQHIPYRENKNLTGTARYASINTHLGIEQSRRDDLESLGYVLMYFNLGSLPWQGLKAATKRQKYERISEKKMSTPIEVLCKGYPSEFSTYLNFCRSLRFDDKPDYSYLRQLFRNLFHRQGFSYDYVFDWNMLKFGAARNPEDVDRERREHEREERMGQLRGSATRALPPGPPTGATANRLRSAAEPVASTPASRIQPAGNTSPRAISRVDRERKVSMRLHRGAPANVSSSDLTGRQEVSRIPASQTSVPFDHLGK

Molecule	IC50 (CK1ε) [nM]	IC50 (CK1δ) [nM]
2-fluoro-N-(6-(3-(4-fluorophenyl)-1- methyl-5-morpholino-1H-pyrazol-4-yl) imidazo[1,2-b]pyridazin-2-yl) isonicotinamide [Compound 144]	3.7	0.74
Cn1cc(-c2ccc3nc(NC(=O)c4ccncc4)cn3n2)c(-c2ccc(F)cc2)n1 [Compound 1, N-(6-(3-(4-Fluorophenyl)-1-methyl-1H-pyrazol-4-yl)imidazo[1,2-b]pyridazin-2-yl)isonicotinamide]	7.4	5.2
Cn1cc(-c2ccc3nc(NC(=O)c4cc(Cl)nc5ccccc45)cn3n2)c(-c2ccc(F)cc2)n1 [Compound 2, 2-chloro-N-(6-(3-(4-fluorophenyl)-1-methyl-1H-pyrazol-4-yl)imidazo[1,2-b]pyridazin-2-yl)quinoline-4-carboxamide]	19.2	1.3
Cc1nc(-c2ccncc2)sc1C(=O)Nc1cn2nc(-c3cn(C)nc3-c3ccc(F)cc3)ccc2n1 [Compound 4, N-(6-(3-(4-fluorophenyl)-1-methyl-1H-pyrazol-4-yl)imidazo[1,2-b]pyridazin-2-yl)-4-methyl-2-(pyridin-4-yl)thiazol-5-carboxamide]	13.7	3.7
Cc1nc(-c2ccccn2)sc1C(=O)Nc1cn2nc(-c3cn(C)nc3-c3ccc(F)cc3)ccc2n1 [Compound 6, N-(6-(3-(4-fluorophenyl)-1-methyl-1H-pyrazol-4-yl)imidazo[1,2-b]pyridazin-2-yl)-4-methyl-2-(pyridin-2-yl)thiazol-5-carboxamide]	17.3	4.3
Cc1nc(-c2ccccc2)sc1C(=O)Nc1cn2nc(-c3cn(C)nc3-c3ccc(F)cc3)ccc2n1 [Compound 7, N-(6-(3-(4-fluorophenyl)-1-methyl-1H-pyrazol-4-yl)imidazo[1,2-b]pyridazin-2-yl)-4-methyl-2-phenylthiazol-5-carboxamide]	34.1	8.3
Cn1cc(-c2ccc3nc(NC(=O)c4csc(-c5ccncc5)n4)cn3n2)c(-c2ccc(F)cc2)n1 [Compound 8, N-(6-(3-(4-fluorophenyl)-1-methyl-1H-pyrazol-4-yl)imidazo[1,2-b]pyridazin-2-yl)-2-(pyridin-4-yl)thiazole-4-carboxamide]	31.4	5.4
Cn1cc(-c2ccc3nc(NC(=O)c4csc(-c5ccc(Cl)cc5)n4)cn3n2)c(-c2ccc(F)cc2)n1 [Compound 11, 2-(4-chlorophenyl)-N-(6-(3-(4-fluorophenyl)-1-methyl-1H-pyrazol-4-yl)imidazo[1,2-b]pyridazin-2-yl)thiazol-4-carboxamide]	899	24.6
Cc1nocc1C(=O)Nc1cn2nc(-c3cn(C)nc3-c3ccc(F)cc3)ccc2n1 [Compound 12, N-(6-(3-(4-fluorophenyl)-1-methyl-1H-pyrazol-4-yl)imidazo[1,2-b]pyridazin-2-yl)-3-methylisoxazole-4-carboxamide]	28.8	7.3
Cn1cc(-c2ccc3nc(NC(=O)c4csc(Br)n4)cn3n2)c(-c2ccc(F)cc2)n1 [Compound 13, 2-bromo-N-(6-(3-(4-fluorophenyl)-1-methyl-1H-pyrazol-4-yl)imidazo[1,2-b]pyridazin-2-yl)thiazole-4-carboxamide]	22.9	2.6
Cn1cc(-c2ccc3nc(NC(=O)c4ccccc4F)cn3n2)c(-c2ccc(F)cc2)n1 [Compound 20, 2-fluoro-N-(6-(3-(4-fluorophenyl)-1-methyl-1H-pyrazol-4-yl)imidazo[1,2-b]pyridazin-2-yl)benzamide]	9.2	4.3
Cn1cc(-c2ccc3nc(NC(=O)c4ccno4)cn3n2)c(-c2ccc(F)cc2)n1 [Compound 22, N-(6-(3-(4-fluorophenyl)-1-methyl-1H-pyrazol-4-yl)imidazo[1,2-b]pyridazin-2-yl)isoxazole-5-carboxamide]	15.2	3.7
Cn1cc(-c2ccc3nc(NC(=O)c4cccc(F)c4)cn3n2)c(-c2ccc(F)cc2)n1 [Compound 23, 3-fluoro-N-(6-(3-(4-fluorophenyl)-1-methyl-1H-pyrazol-4-yl)imidazo[1,2-b]pyridazin-2-yl)benzamide]	8.6	2.6
Cn1cc(-c2ccc3nc(NC(=O)c4ccc(Cl)cc4F)cn3n2)c(-c2ccc(F)cc2)n1 [Compound 24, 4-chloro-2-fluoro-N-(6-(3-(4-fluorophenyl)-1-methyl-1H-pyrazol-4-yl)imidazo[1,2-b]pyridazin-2-yl)benzamide]	16.2	6.3
Cn1cc(-c2ccc3nc(NC(=O)c4ccnnc4)cn3n2)c(-c2ccc(F)cc2)n1 [Compound 25, N-(6-(3-(4-fluorophenyl)-1-methyl-1H-pyrazol-4-yl)imidazo[1,2-b]pyridazin-2-yl)pyridazine-4-carboxamide]	14.5	7.4
Cn1cc(-c2ccc3nc(NC(=O)c4cncs4)cn3n2)c(-c2ccc(F)cc2)n1 [Compound 28, N-(6-(3-(4-fluorophenyl)-1-methyl-1H-pyrazol-4-yl)imidazo[1,2-b]pyridazin-2-yl) thiazole-5-carboxamide]	6.6	3.1
Cn1cc(-c2ccc3nc(NC(=O)c4ncccn4)cn3n2)c(-c2ccc(F)cc2)n1 [Compound 29, N-(6-(3-(4-fluorophenyl)-1-methyl-1H-pyrazol-4-yl)imidazo[1,2-b]pyridazin-2-yl)pyrimidine-2-carboxamide]	48.1	16
Cn1cc(-c2ccc3nc(NC(=O)c4ccc(CN5CCCC5)cc4)cn3n2)c(-c2ccc(F)cc2)n1 [Compound 30, N-(6-(3-(4-fluorophenyl)-1-methyl-1H-pyrazol-4-yl)imidazo[1,2-b]pyridazin-2-yl)-4-(pyrrolidin-1-ylmethyl)benzamide]	7.9	5.8
CCN(CC)Cc1ccc(C(=O)Nc2cn3nc(-c4cn(C)nc4-c4ccc(F)cc4)ccc3n2)cc1 [Compound 31, 4-((diethylamino)methyl)-N-(6-(3-(4-fluorophenyl)-1-methyl-1H-pyrazol-4-yl)imidazo[1,2-b]pyridazin-2-yl)benzamide]	6.3	3.9
Cn1cc(-c2ccc3nc(NC(=O)c4cc(C(C)(C)C)ncn4)cn3n2)c(-c2ccc(F)cc2)n1 [Compound 32, 6-(tert-butyl)-N-(6-(3-(4-fluorophenyl)-1-methyl-1H-pyrazol-4-yl)imidazo[1,2-b]pyridazin-2-yl)pyrimidine-4-carboxamide]	98.3	10.1
COc1cc(C(=O)Nc2cn3nc(-c4cn(C)nc4-c4ccc(F)cc4)ccc3n2)nc(OC)n1 [Compound 39, N-(6-(3-(4-fluorophenyl)-1-methyl-1H-pyrazol-4-yl)imidazo[1,2-b]pyridazin-2-yl)-2,6-dimethoxypyrimidine-4-carboxamide]	75.7	–
Cn1cc(-c2ccc3nc(NC(=O)c4cncc(Cl)c4)cn3n2)c(-c2ccc(F)cc2)n1 [Compound 46, 5-chloro-N-(6-(3-(4-fluorophenyl)-1-methyl-1H-pyrazol-4-yl)imidazo[1,2-b]pyridazin-2-yl)nicotinamide]	–	4.1
Cn1cc(-c2ccc3nc(NC(=O)c4ccnc(C(C)(C)C)c4)cn3n2)c(-c2ccc(F)cc2)n1 [Compound 50, 2-(tert-butyl)-N-(6-(3-(4-fluorophenyl)-1-methyl-1H-pyrazol-4-yl)imidazo[1,2-b]pyridazin-2-yl)isonicotinamide]	99.9	–
COc1ncccc1C(=O)Nc1cn2nc(-c3cn(C)nc3-c3ccc(F)cc3)ccc2n1 [Compound 77, N-(6-(3-(4-fluorophenyl)-1-methyl-1H-pyrazol-4-yl)imidazo[1,2-b]pyridazin-2-yl)-2-methoxynicotinamide]	–	10.6
Cn1cc(-c2ccc3nc(NC(=O)C4CCCCC4)cn3n2)c(-c2ccc(F)cc2)n1 [Compound 87, N-(6-(3-(4-fluorophenyl)-1-methyl-1H-pyrazol-4-yl)imidazo[1,2-b]pyridazin-2-yl)cyclohexanecarboxamide]	11.3	–
CN1CCC(C(=O)Nc2cn3nc(-c4cn(C)nc4-c4ccc(F)cc4)ccc3n2)CC1 [Compound 90, N-(6-(3-(4-fluorophenyl)-1-methyl-1H-pyrazol-4-yl)imidazo[1,2-b]pyridazin-2-yl)-1-methylpiepridine-4-carboxamide]	135	–
Cn1cc(C(=O)Nc2cn3nc(-c4cn(C)nc4-c4ccc(F)cc4)ccc3n2)cn1 [Compound 98, N-(6-(3-(4-fluorophenyl)-1-methyl-1H-pyrazol-4-yl)imidazo[1,2-b]pyridazin-2-yl)-1-methyl-1H-pyrazole-4-carboxamide]	–	2.6
Cn1nc(-c2ccc(F)cc2)c(-c2ccc3nc(NC(=O)c4ccnc(F)c4)cn3n2)c1N1CCN(C(=O)C2CC2)CC1 [Compound 122, N-(6-(5-(4-(Cyclopropanecarbonyl)piperazin-1-yl)-3-(4-fluorophenyl)-1-methyl-1H-pyrazol-4-yl)imidazo[1,2-b]pyridazin-2-yl)-2-fluoroisonicotinamide]	–	0.5
Cn1nc(-c2ccc(F)cc2)c(-c2ccc3nc(NC(=O)c4ccnc(F)c4)cn3n2)c1N1CCOCC1 [Compound 143, 2-Fluoro-N-(6-(3-(4-fluorophenyl)-1-methyl-5-morpholino-1H-pyrazol-4-yl)imidazo[1,2-b]pyridazin-2-yl)isonicotinamide]	–	2
Cn1nc(-c2ccc(F)cc2)c(-c2ccc3nc(NC(=O)c4ccncc4)cn3n2)c1C1CCN(Cc2cscn2)CC1 [Compound 171, N-(6-(3-(4-fluorophenyl)-1-methyl-5-(1-(thiazol-4-ylmethyl)piperidin-4-yl)-1H-pyrazol-4-yl)imidazo[1,2-b]pyridazin-2-yl) isonicotinamide]	–	3.6
